Where two headings read alike, the source gives them in different places. Where a SMILES comes first, the peptide text is derived from it.

In the assay the test system is wild-type (wt) Salmonella enterica serovar Typhimurium strain SL1344. Here is the method:
MIC values were determined by broth microdilution according to standard protocols with a few modifications ([26]). An overnight bacterial cell culture, supplemented with the appropriate antibiotic when needed, was diluted 1:100 in fresh MHB and grown to OD600 0.5. The obtained culture was diluted to ∼10^5 cfu/ml or 10^6 cfu/ml, as indicated, in non-cation-adjusted MHB. Subsequently, 190 μl bacterial solution was dispensed into a 96-well plate (Thermo Fisher Scientific) along with 10 μl of a 20x PPNA, PNA or peptide working solution. Growth was monitored by measuring the OD at 600 nm every 20 min in a Synergy H1 plate reader (Biotek) with continuous double-orbital shaking (237 cpm) at 37°C for 24 h.

[1] abbreviates: Table 1, ∼10^5 cfu/ml, non-cation-adjusted MHB, 37°C, 24 h, lowest concentration with OD600 < 0.1.
The mark [2] stands for this setting: wild-type (wt) serovar Typhimurium strain SL1344, 24 h.

RQIKIWFQNRRMKWKK [ANT-acpP]: the minimal inhibitory concentration (MIC) (Table 1, ∼10^5 cfu/ml, non-cation-adjusted MHB, 37°C, 24 h) is 12 µg/mL and the “MIC” value under setting [1] is 3.3 µM.

For `CC(C)C[C@H](NC(=O)[C@H](CCCNC(=N)N)NC(=O)[C@@H](NC(=O)[C@@H]1CCCN1C(=O)[C@@H]1CCCN1C(=O)[C@@H]1CCCN1C(=O)[C@H](CC(C)C)NC(=O)[C@H](CCCNC(=N)N)NC(=O)[C@@H](NC(=O)[C@@H]1CCCN1C(=O)[C@@H]1CCCN1C(=O)[C@@H]1CCCN1C(=O)[C@H](CC(C)C)NC(=O)[C@H](CCCNC(=N)N)NC(=O)[C@@H](N)C(C)C)C(C)C)C(C)C)C(=O)N1CCC[C@H]1C(=O)N1CCC[C@H]1C(=O)N1CCC[C@H]1C(=O)O` [SAP, reference compound] (H-VRLPPPVRLPPPVRLPPP-OH; N-terminus and C-terminus assumed), the minimal inhibitory concentration (MIC) under setting [2] is more than 10 µM.

For VELPPPVELPPPVELPPP [SAPE-acpP-scr], under setting [1], the “MIC” value was more than 10 µM.

VRLPPPVRLPPPVRLPPP [SAP-acpP-scr]: the “MIC” value under setting [1] was more than 10 µM.

As for RQIKIWFQNRRMKWKK [ANT-acpP-scr], the “MIC” value under setting [1] is more than 10 µM.

`CC(C)C[C@H](NC(=O)[C@H](CCC(=O)O)NC(=O)[C@@H](NC(=O)[C@@H]1CCCN1C(=O)[C@@H]1CCCN1C(=O)[C@@H]1CCCN1C(=O)[C@H](CC(C)C)NC(=O)[C@H](CCC(=O)O)NC(=O)[C@@H](NC(=O)[C@@H]1CCCN1C(=O)[C@@H]1CCCN1C(=O)[C@@H]1CCCN1C(=O)[C@H](CC(C)C)NC(=O)[C@H](CCC(=O)O)NC(=O)[C@@H](N)C(C)C)C(C)C)C(C)C)C(=O)N1CCC[C@H]1C(=O)N1CCC[C@H]1C(=O)N1CCC[C@H]1C(=O)O` [SAPE, reference compound] (H-VELPPPVELPPPVELPPP-OH; N-terminus and C-terminus assumed): under setting [2], the minimal inhibitory concentration (MIC) was more than 10 µM.

The values are drawn from publication PMC8096218, “Global RNA profiles show target selectivity and physiological effects of peptide-delivered antisense antibiotics” (Nucleic Acids Research, 2021).
